Measured values taken from patent US20240165132A1, “METHODS AND MATERIALS FOR TREATING CANCER” (Mayo Foundation for Medical Education and Research, priority 2021, published 2024).

Key:
[1] = test system: radiated orthotopic glioma; assay: Convection-enhanced delivery into radiated orthotopic tumors, tumor bioluminescence; format: in vivo, mice; details: CED 1 month after radiation, read 1 further month thereafter; vehicle 39.7%
Description: FIGS. 18A-18C show in vivo senescent glioblastoma tumor ablation by convection enhanced drug delivery.
Senolytic drugs were screened using human glioblastoma cells radiated with 10-20 Gy, or 100 uM TMZ and then maintained for 3 to 4 weeks. Senescence was confirmed via beta-galactosidase staining, elevated p21 transcript and loss of nuclear […] immunohistochemistry (FIGS. 16A-16B). IC50 was compared in radiated (senescent) vs non-radiated cells using the cell-titer glow assay. 1 month after in vivo radiation of intracranial tumors, convection-enhanced delivery (CED) of drug was performed. Any change in tumor bioluminescence was evaluated 1 month thereafter. CED infusion efficacy was confirmed via MRI.

[2] = test system: GBM12 parental line and TMZ-resistant subclones; assay: TMZ re-challenge plus Bcl-XL inhibitor, CellTiter-Glo; format: cell-based, human; details: 10 μM TMZ plus 1 μM inhibitor, 5 days

## Cc1c(-c2ccc(N3CCc4cccc(C(=O)Nc5nc6ccccc6s5)c4C3)nc2C(=O)O)cnn1CC12CC3CC(CC(C3)C1)C2 [A1331852]
[1]
  Decrease of tumor bioluminescence: 93.1%
[2]; 3 TMZ-resistant subclones (R)
  Ablation of TMZ-resistant subclones: induced complete ablation
[2]; parental cells (S)
  Ablation of parental TMZ-sensitive cells: increased TMA-induced ablation
